Source: US9067983B2, “Anti-inflammatory antibodies and uses therefor” (DecImmune Therapeutics, Inc., priority 2009, dated 2015)
No end group written: not given here.

Tested on: RAG-1-/- mice
Experiment: human IgM-mediated myocardial injury in RAG-1-/- mice (1 h LAD occlusion, 24 h reperfusion)
Type: in vivo, mouse
Details: 400 μg hIgM i.v. with 200 μg N2 peptide or 150 μg F(ab')2, 15 min prior to occlusion; FIG. 4
Method: Prior to occlusion (15 min), 400 μg of pooled individual hIgM from 10 donors was injected i.v. into the mice with either saline or 200 μg of N2 peptide. Myocardial sections were stained with Evans blue and TTC. Myocardial infarct size is expressed as a percentage infarct of the area at risk (AAR) of the left ventricle. (B and C) RAG-1−/− mice were treated as in (A) and analyzed for hIgM deposition (B) or serum troponin-I levels (C). (D) RAG-1−/− mice were subjected to 1 h LAD occlusion and 24 h reperfusion. Prior to occlusion (15 min), 400 μg hIgM was injected i.v. into the mice with either saline or 150 μg of anti-N2 F(ab′)2 antibody (21G6) and myocardial sections were analyzed as in (A). (E) RAG-1−/− mice were treated as in (D) and analyzed for hIgM deposition. In all panels, statistical significance was evaluated by Student's t test.

With “Ac-LMKNMDPLNDNV (listed as Mus sp.) [N2 peptide, self-peptide, amino acids 592-603 of Mouse NMHC-IIB]” the “human IgM-mediated injury (infarct size, hIgM deposition, serum troponin-I)” value was “block human IgM-mediated injury”.
